Measured values from publication PMC9926234, “Iterative computational design and crystallographic screening identifies potent inhibitors targeting the Nsp3 macrodomain of SARS-CoV-2” (Proceedings of the National Academy of Sciences of the …, 2023).
“And” between values parts separate entries of the source, which are not always exact repeats. Equal entries are not always repeated. Where two headings read alike, the source gives them in different places.

Key:
[1] = target: T1, SARS-CoV-2 NSP3 Mac1 (Severe acute respiratory syndrome coronavirus 2, UniProt P0DTD1); assay type: binding; conditions: for Refined occupancy: ligand occupancy after refinement (phenix.refine); for HIT*: true hit = binding in crystallographic soaking or the HTRF-based binding assay
[2] = target: T1, SARS-CoV-2 NSP3 Mac1; design: contains a conserved macrodomain enzyme (Mac1); Differential scanning fluorimetry of Mac1, maximum thermal upshift; conditions: maximum shift over tested concentrations; binder
[3] = target: T1, SARS-CoV-2 NSP3 Mac1; assay type: binding; design: contains a conserved macrodomain enzyme (Mac1); conditions: for Spearman est (compound concentration vs apparent Tm): DSF dose responsiveness, 1 µM nsp3 mac1, adj p given; for DSF max dTma: maximal thermal upshift
Outline: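 Differential scanning fluorimetry using 5 µM Fluorescent Yellow dye in place of SYPRO Orange. Compounds run in triplicate at seven two-fold dilutions from 1,000 or 100 μM, with ΔTma taken against a DMSO control in the same plate region. Dose-response significance assessed by Spearman's coefficient between concentration and ΔTma.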

[4] = target: T2, MacroD2 (Homo sapiens, UniProt A1Z1Q3); experiment: adapted HTRF-based peptide displacement assay (off-target); assay type: binding; conditions: for binding / activity against MacroD2: compound at 160 µM
T2 construct: MacroD2_HTRF; HTRF assay; pET22b(+); His6, TEV, Avi; made in house
T2 sequence (A1Z1Q3 with tags, fused parts or gaps): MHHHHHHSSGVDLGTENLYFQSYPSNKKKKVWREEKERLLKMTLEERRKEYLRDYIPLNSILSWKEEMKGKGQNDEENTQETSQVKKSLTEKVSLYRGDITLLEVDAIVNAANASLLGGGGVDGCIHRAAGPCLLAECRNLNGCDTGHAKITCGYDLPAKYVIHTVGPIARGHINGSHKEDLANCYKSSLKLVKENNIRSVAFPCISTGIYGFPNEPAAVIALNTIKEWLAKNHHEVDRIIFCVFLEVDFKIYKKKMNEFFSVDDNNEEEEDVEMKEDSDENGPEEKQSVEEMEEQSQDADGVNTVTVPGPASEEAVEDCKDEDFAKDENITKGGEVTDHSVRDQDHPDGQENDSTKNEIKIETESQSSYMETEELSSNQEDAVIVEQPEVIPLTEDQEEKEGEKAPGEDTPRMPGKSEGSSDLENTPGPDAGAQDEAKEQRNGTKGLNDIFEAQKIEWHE

[5] = target: T3, TARG1 (Homo sapiens, UniProt Q9Y530); experiment: as above; assay type: binding; conditions: for binding / activity against TARG1: compound at 160 µM
T3 construct: Targ1_HTRF; HTRF assay; pET22b(+); His6, TEV; 1-153; made in house
T3 sequence (Q9Y530 with tags, fused parts or gaps): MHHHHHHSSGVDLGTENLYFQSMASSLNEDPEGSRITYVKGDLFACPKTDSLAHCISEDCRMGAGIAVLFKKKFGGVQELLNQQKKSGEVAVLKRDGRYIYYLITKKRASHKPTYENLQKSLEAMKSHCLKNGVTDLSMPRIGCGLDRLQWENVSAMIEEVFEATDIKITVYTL

[6] = target: T1, SARS-CoV-2 NSP3 Mac1; experiment: biochemical; assay type: binding
[7] = test system: SARS-CoV-2 NSP3 Mac1; experiment: Overall hit call (binding in crystallographic soaking or the HTRF-based binding assay)
From the text: Supplement pnas.2212931120.sd01.xlsx, sheet "Compound Summary" | column: HIT*

[8] = test system: P-glycoprotein (human MDR1); experiment: in vitro; conditions: dog; for Papp: MDCK-MDR1, pH 7.4, permeability, MDR1-MDCKII
Procedure: Permeability of compounds was assessed using canine MDR1 knockout and human MDR1 knockin MDCKII cells (MDR1-MDCKII) (Sigma-Aldrich, MTOX1303) in confluent monolayers expressing P-glycoprotein (P-gp) at Enamine biological services Bienta LTD (Kyiv, Ukraine).
Canine MDR1 knockout, human MDR1 knockin MDCKII cell (MDR1-MDCKII) (Sigma-Aldrich,
MTOX1303) suspension (400 μl) was added to each well of high throughput screening multiwell
insert system plates. Test compounds were prepared as 20 mM DMSO stocks. The test compound
(300 µl) was dissolved in transport buffer (9.5 g/l Hanks’ balanced salt solution and 0.35 g/l NaHCO3
wells whereas 1000 µl of transport buffer was added to transport analysis plate wells in order to
determine apical (A) to basolateral (B) transport. Basolateral to apical transport was measured by
adding 1000 µl of the test compound solution into the transport analysis plate wells whereas 300
µl of buffer was used to fill the filter plate wells.
were taken from the donor and receiver compartments for LC-MS/MS analysis. Samples were
mixed with acetonitrile followed by protein sedimentation by centrifugation at 1000 rpm for 10 min.
HPLC coupled with tandem mass spectroscopy was performed using the Shimadzu Prominence
HPLC system coupled with the API 5000 (PE Sciex) spectrometer. Both the positive and negative
ion modes of the TurboIonSpray ion source were used. The apparent permeability (Papp) was
computed using the equation 1, where VA is the volume of transport buffer in acceptor wel, Area is
the surface area of the insert, Time is the assay time, [drug]acc is the peak area of test compound
in acceptor well, and [drug]initial,d is the initial amount of the test compound in a donor well.

[9] = PanDDA event map, 1 minus background density correction, crystal soaking of Mac1
[10] = HTRF ADPr-peptide displacement from SARS-CoV-2 Mac1, read-out: IC50
[11] = Ki estimation from HTRF-derived IC50, Cheng-Prusoff, peptide 400nM, Kd 2.68µM, read-out: Ki***
[12] = ligand modeled from this dataset, compound concentration 100 mM, Echo dispense volume 40 or 80 nl
[13] = ligand modeled from this dataset, compound concentration 100 mM
[14] = PanDDA 1-BDC value of the event, crystal soak, compound concentration 100 mM, per dataset
[15] = crystal soak, compound concentration 100 mM, per dataset
[16] = PanDDA event map, crystal soak, Compound_concentration 100 mM, Echo_dispense_volume 40 nl
[17] = crystal soak, Compound_concentration 100 mM, Echo_dispense_volume 40 nl, PanDDA run (background map) dmso_34, nohits_35 or nohits_62

Cc1noc(CC2CCCN(c3ncnc4[nH]c5cc(F)ccc5c34)C2)n1 (stereo not shown) [LL1_0005]
1-BDC [1, 9]: 0.11
Refined occupancy ([1]; crystal soaking of Mac1): 22
HIT* [1]: Y
DSF max dTma [2]: 0.6 °C
Spearman est (compound concentration vs apparent Tm) [3]: 0.01
DSF max dTma [3]: 0.6 ˚C

O=C(O)CC1CN(c2ncnc3[nH]c4cc(F)ccc4c23)CCO1 (stereo not shown) [LL1_0014]
displacement of the ADPr-conjugated peptide (off-target activity) ([4]; compound at 1 mM): 50%
displacement of the ADPr-conjugated peptide (off-target activity) ([5]; compound at 1 mM): 50%
IC50 [6, 10]: 16 to 29 µM and 16.4 to 28.7 µM
IC50 ([6]; HTRF, read-out: IC50): 16.4 µM and 28.7 µM
Ki [6, 11]: 14.3 µM and 25 µM
1-BDC [1, 9]: 0.11
Modeled? [1, 12]: TRUE
Refined occupancy ([1]; crystal soaking of Mac1): 22
HIT* [1]: Y
Spearman est (compound concentration vs apparent Tm) [3]: 0.91
DSF max dTma [3]: 3.21 ˚C

O=c1[nH]nc(C2CCCN(c3ncnc4[nH]c5cc(F)ccc5c34)C2)o1 (stereo not shown) [LL1_0017]
1-BDC (PanDDA) [1, 9]: 0.09
Modeled? [1, 13]: TRUE
Refined occupancy ([1]; crystal soaking of Mac1): 18
HIT* [1]: Y
DSF max dTma [2]: 0.5 °C
Spearman est (compound concentration vs apparent Tm) [3]: 0.18
DSF max dTma [3]: 0.5 ˚C

O=C(O)CCC1CCCN(c2ncnc3[nH]c4cc(F)ccc4c23)C1 (stereo not shown) [LL1_0018]
IC50 ([6]; HTRF, read-out: IC50): 25.8 µM
Ki [6, 11]: 22.4 µM
1-BDC (PanDDA) [1, 9]: 0.1
Modeled? [1, 13]: TRUE
Refined occupancy ([1]; crystal soaking of Mac1): 20
HIT* [1]: Y
DSF max dTma [2]: 2.71 °C
Spearman est (compound concentration vs apparent Tm) [3]: 0.96
DSF max dTma [3]: 2.71 ˚C

O=C(O)C1(F)CN(c2cc(Nc3ccccc3)ncn2)CC12CCC2 (stereo not shown) [LL1_0025]
IC50 ([6]; HTRF, read-out: IC50): 121 µM
Ki [6, 11]: 106 µM
1-BDC [1, 14]: 0.12
1-BDC (PanDDA) [1, 9]: 0.14
PanDDA hit? [1, 15]: TRUE
Modeled? [1, 13]: TRUE
Refined occupancy ([1]; crystal soaking of Mac1): 28
HIT* [1]: Y
DSF max dTma [2]: 1.36 °C
Spearman est (compound concentration vs apparent Tm) [3]: 0.71
DSF max dTma [3]: 1.36 ˚C

CS(=O)(=O)C1CCCN(c2ncnc3[nH]c4cc(F)ccc4c23)C1 (stereo not shown) [LL1_0027]
1-BDC [1, 14]: 0.09
1-BDC [1, 9]: 0.06
PanDDA hit? [1, 15]: TRUE
Modeled? [1, 12]: TRUE
Refined occupancy ([1]; crystal soaking of Mac1): 12
HIT* [1]: Y
DSF max dTma [2]: 0.8 °C
Spearman est (compound concentration vs apparent Tm) [3]: 0.41
DSF max dTma [3]: 0.8 ˚C

Fc1ccc2c(c1)[nH]c1ncnc(N3CCOC(c4nnn[nH]4)C3)c12 (stereo not shown) [LL114_0008]
displacement of the ADPr-conjugated peptide (off-target activity) ([4]; compound at 50 µM): showed measurable peptide displacement
displacement of the ADPr-conjugated peptide (off-target activity) ([5]; compound at 50 µM): showed measurable peptide displacement
HIT* [7]: Y
IC50 ([6]; HTRF ADPr-conjugated peptide displacement, read-out: IC50): 17.2 µM
IC50 [6, 10]: 17 µM
Ki ([6]; read-out: Ki***): 15 µM
1-BDC (PanDDA) [1, 9]: 0.25
1-BDC [1, 16]: 0.25
PanDDA hit? [1, 17]: TRUE
Modeled? ([1]; ligand modeled, crystal soak, Compound_concentration 100 mM, Echo_dispense_volume 40 nl): TRUE
Refined occupancy ([1]; crystal soaking of Mac1): 50

O=C1CCCN1Nc1ncnc2[nH]c3cc(F)ccc3c12 [LRH-0003]
binding / activity against MacroD2 [4]: neither neutral compounds LRH-0003 and LRH-0008 had measurable binding
binding / activity against TARG1 [5]: neither neutral compounds LRH-0003 and LRH-0008 had measurable binding
Papp ([8]; apical to basal): 13.8 ×10⁻⁶ cm/s
Papp ([8]; basal to apical): 24.3 ×10⁻⁶ cm/s

O=C1CCCC1Nc1ncnc2[nH]c3cc(F)ccc3c12 (stereo not shown) [LRH-0008]
binding / activity against MacroD2 [4]: neither neutral compounds LRH-0003 and LRH-0008 had measurable binding
binding / activity against TARG1 [5]: neither neutral compounds LRH-0003 and LRH-0008 had measurable binding
HIT* [7]: Y
IC50 [6, 10]: 13.4 µM
Ki ([6]; read-out: Ki***): 11.7 µM

O=C(O)[C@H]1CCCC[C@H]1Nc1ncnc2[nH]c3cc(F)ccc3c12 [LRH-0021]
binding / activity against TARG1 [5]: showed binding
HIT* [7]: Y
binding to Mac1 in the HTRF assay, result in words [6]: equipotent to LRH-0003
IC50 ([6]; IC50 [µM], HTRF ADPr-conjugated peptide displacement): 1.7 µM
Ki ([6]; Ki*** [µM]): 1.5 µM
1-BDC (PanDDA) [1, 9]: 0.12
1-BDC [1, 16]: 0.05
1-BDC ([1]; PanDDA event map, crystal soak, Compound_concentration 100 mM, Echo_dispense_volume 80 nl): 0.12
PanDDA hit? [1, 17]: TRUE
PanDDA hit? ([1]; crystal soak, Compound_concentration 100 mM, Echo_dispense_volume 80 nl, PanDDA run dmso_34): TRUE
Modeled? ([1]; ligand modeled, crystal soak, Compound_concentration 100 mM, Echo_dispense_volume 80 nl): TRUE
Refined occupancy ([1]; crystal soaking of Mac1): 24
Papp ([8]; apical to basal): 12 ×10⁻⁶ cm/s
Papp ([8]; basal to apical): 9.1 ×10⁻⁶ cm/s

Cc1nnc(CNc2cnc(N)c(Cl)n2)n1C1CC1 [Z1964, ZINC000893101964]
DSF max dTma [2]: 0.12 °C

O=C(Cc1ccc(-n2cccn2)cc1)OCC1CCCNC1=O (stereo not shown) [Z5505, ZINC000835985505]
DSF max dTma [2]: 0.16 °C

c1csc(CC2CCN(c3ncnc4[nH]ccc34)C2)n1 (stereo not shown) [Z6891, ZINC000897286891]
DSF max dTma [2]: 0.15 °C

OCc1cn(C2CCCN(c3ncnc4[nH]ccc34)C2)nn1 (stereo not shown) [Z7864, ZINC000292637864]
DSF max dTma [2]: 0.32 °C

O=C(Nc1ccc(C(=O)NC2c3cccc(O)c3CC2C(=O)O)cc1)NC1CC1 (stereo not shown) [Z8539]
Papp A→B at 90 min, 10 µM ([8]; MDCK-MDR1, pH 7.4): 1.1 ± 0.1 ×10⁻⁶ cm/s
Papp B→A at 90 min, 10 µM ([8]; MDCK-MDR1, pH 7.4): 0.5 ×10⁻⁶ cm/s
Papp at 90 min, 10 µM ([8]; MDCK-MDR1, pH 7.4, cell permeability, MDCK cells, direction not given): 1.1 ×10⁻⁶ cm/s

Cc1nnc2n1CC(C(=O)O)N(C(=O)c1ccc(NC(=O)NC3CC3)cc1)C2 (stereo not shown) [Z8539_0037, 8539_0037]
DSF max dTma [2]: 2.36 °C

NC(=O)Nc1ccc(C(=O)NC2c3cccc(O)c3CC2C(=O)O)cc1 (stereo not shown) [Z8539_0041, 8539_0041]
DSF max dTma [2]: 6 °C

O=C(Nc1ccc(C(=O)NC2c3cccc(O)c3CC2C(=O)O)c(O)c1)NC1CC1 (stereo not shown) [Z8539_0072]
displacement of the ADPr-conjugated peptide (off-target activity) ([4]; compound at 50 µM): did not show any off-target activity
displacement of the ADPr-conjugated peptide (off-target activity) ([4]; compound at 1 mM): did not show any off-target activity
displacement of the ADPr-conjugated peptide (off-target activity) ([5]; compound at 50 µM): did not show any off-target activity
displacement of the ADPr-conjugated peptide (off-target activity) ([5]; compound at 1 mM): did not show any off-target activity
IC50 ([6]; HTRF, Mac1, read-out: affinity): 0.43 µM
IC50 ([6]; IC50, HTRF ADPr-peptide displacement from SARS-CoV-2 Mac1): 0.4 µM
Ki [6, 11]: 0.3 µM
improvement compared to the best starting fragment ([6]; affinity, HTRF): > 400 fold
1-BDC ([1]; PanDDA event map 1-BDC, crystal soak, Compound_concentration 100 mM, PanDDA run dmso_34 or nohits_35 per dataset): 0.24
1-BDC (PanDDA) [1, 9]: 0.24
PanDDA hit? ([1]; crystal soak, Compound_concentration 100 mM, Echo dispense 40 nl, PanDDA run dmso_34 or nohits_35 per dataset): TRUE
Modeled? ([1]; ligand modeled in this dataset, crystal soak, Compound_concentration 100 mM): TRUE
Refined occupancy ([1]; crystal soaking of Mac1): 48
HIT* [1]: Y

O=C(Nc1ccc(C(=O)N[C@H]2c3cccc(O)c3C[C@H]2C(=O)O)cc1)NC1CC1 [Z8601]
displacement of the ADPr-conjugated peptide (off-target activity) ([4]; compound at 50 µM): no displacement
displacement of the ADPr-conjugated peptide (off-target activity) ([4]; compound at 1 mM): approximately 50%
displacement of the ADPr-conjugated peptide (off-target activity) ([5]; compound at 50 µM): no displacement
displacement of the ADPr-conjugated peptide (off-target activity) ([5]; compound at 1 mM): approximately 50%

O=C1NCCCC1Nc1ncnc(-c2ccccc2)n1 (stereo not shown) [Z9020, ZINC000884519020]
DSF max dTma [2]: 1.01 °C
